Consider ten compounds from PubChem BioAssay (NCI).

Common to all, as to assay: growth of human tumour cells (NCI), 48 h
Test [1] has as its system KM12 colon.
Test [2] has as its system NCI/ADR-RES ovarian.
Test [3] concerns CAKI-1 renal.
The test system of test [4] is NCI-H226 lung.
Test [5] deals with PC-3 prostate.
Test [6] concerns M14 melanoma.
The test system of test [7] is SK-MEL-5 melanoma.
Test [8] concerns T-47D breast.
In test [9] the test system is HT29 colon.
For test [10], the system named is K-562 leukemia.
Test [11] has as its system SF-295 CNS.
The subject of test [12] is IGROV1 ovarian.
The subject of test [13] is MDA-MB-435.
In test [14] the test system is NCI-H23 lung.
In test [15] the test system is MALME-3M melanoma.
Test [16] relates to OVCAR-3 ovarian.
The subject of test [17] is SN12C renal.

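Interpolation was linear, between the two tested concentrations surrounding the appropriate level; five concentrations were tested over 48 hours in 96-well plates. TGI: concentration producing complete growth inhibition.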

As to `O=[N+]([O-])c1cnc(N(CCO)CCO)s1`, the TGI in test [1], in [2], in test [3], in test [4], in [5] and in test [6] was > 100 µM in each case. The TGI in [7], in [8], in test [9], in [10], in test [11] and in test [12] was > 100 µM throughout. The TGI in test [13], in [14], in test [15], in test [16] and in test [17] was > 100 µM throughout.

In the case of `O=S1(=O)OCCOS(=O)(=O)C1(Cl)Cl`, the TGI in test [1], in [3], in test [4], in test [6], in [7] and in [9] was > 100 µM in each case. Further, the TGI in test [10], in test [11], in test [12], in test [14], in [15] and in test [16] was > 100 µM throughout. Further, the TGI in [17] is > 100 µM.

With `O=C1C(Cl)=C(N2CCN(CCOCCO)CC2)C(=O)c2ccccc21`, the TGI came out at 31.6 µM in test [1]; 25 µM in test [2]; 29.5 µM in test [3]; 31 µM in [4]; 31.9 µM in test [5]; 22.6 µM in [6]. Further, the TGI in test [7] is 28.2 µM; in test [8], 3.34 µM; in test [9], 30 µM; in [10], > 21.7 µM; in [11] it was 32 µM; in [12], 28.6 µM. In addition, the TGI amounted to 12.8 µM in test [13]; 28 µM in test [14]; 15.2 µM in test [15]; 9.44 µM in [16]; 28.8 µM in test [17].

Consider `C=CCOC1CC(n2cnc3c(N)ncnc32)OC1CO` (stereo not drawn), for which the TGI in [1], in test [3], in [4], in test [6], in test [7] and in [9] was > 100 µM in each case. Moreover, the TGI in test [10], in [11], in test [12], in test [14], in test [15] and in test [16] was > 100 µM throughout.

In the case of `CC1OC(OC2C(OC(=O)[C@]34CCC(C)(C)CC3C3=CCC5[C@@]6(C)C[C@H](O)[C@H](OC7OC(COC8OC(CO)C(O)C(O)C8O)C(O)C(O)C7O)[C@@](C)(C(=O)O)C6CC[C@@]5(C)C3(C)CC4)OCC(O)C2O)C(O)C(O)C1OC1OCC(O)C(O)C1O` (stereo partly drawn), the TGI in test [1], in test [3], in test [4], in [7], in test [9] and in test [10] was > 100 µM in each case. For the same compound, the TGI in [11], in test [12], in [14], in test [15], in [16] and in test [17] was > 100 µM in each case.

In the case of `Cc1ccc(C(=O)C(c2nc3n(c2O)C(=N)N=N3)c2nc3n(c2O)C(=N)N=N3)cc1` (stereo not drawn), the TGI in [1], in test [3], in test [4], in test [6], in test [7] and in [9] was > 100 µM throughout. Also, the TGI in test [10], in test [11], in test [12], in test [14], in [15] and in [16] was > 100 µM throughout. In test [17], the TGI was > 100 µM.

Take `CN(C)CCCOc1ccc(/C=C2/CCC/C(=C/c3ccc(OCCCN(C)C)cc3)C2=O)cc1`: the TGI in [1] worked out at 2.93 µM; in test [6] it was 6.07 µM; in [7] it was 3.92 µM; in [10], 1.24 µM; in [11] it was 3.65 µM; in [12] it was 6.78 µM. Moreover, the TGI was determined as 3.63 µM in test [14], 3.32 µM in test [15], 5.56 µM in test [16] and 2.96 µM in [17].

With `CCC(=O)N(c1ccccc1)C(C)CN1CCC(O)(c2cccc(C(F)(F)F)c2)CC1` (stereo not drawn), the TGI in test [1] is > 100 µM; in test [2], 53.4 µM; in [3], > 100 µM; in test [4], 76.5 µM; in test [5], 46 µM; in test [6], 33.4 µM. The TGI is 34.9 µM in test [7]; 98.4 µM in [8]; 27.2 µM in test [9]; 75.4 µM in test [10]; > 100 µM in test [11]; > 100 µM in [12]. Besides, the TGI in [13] was 42 µM; in test [14], 47.5 µM; in test [16], > 100 µM; in [17], > 100 µM.

For the compound `CC(NC(=O)C(N)CC(=O)O)C(=O)OC12CC3CC(CC(C3)C1)C2` (stereo not drawn), the TGI in test [1], in test [2], in test [3], in [5], in test [6] and in [7] was > 100 µM throughout. The TGI in [9], in test [10], in [12], in test [13], in test [14] and in test [17] was > 100 µM each time.

Turning to `O=C(O)CCNc1ncc2c(n1)-c1ccccc1OC2`, the TGI in [1], in test [2], in test [3], in [4], in [5] and in test [6] was > 100 µM throughout. Moreover, the TGI in test [7], in [9], in test [10], in test [11], in test [12] and in [13] was > 100 µM throughout. Besides, the TGI in [14], in test [15], in test [16] and in test [17] was > 100 µM each time.
